According to PMC8843100, “Development of newly synthesised quinazolinone-based CDK2 inhibitors with potent efficacy against melanoma” (Journal of Enzyme Inhibition and Medicinal Chemistry, 2022):

Key:
Experiment in all cases: NCI-60 single dose screen, sulforhodamine B
Format in all cases: cell-based, human
M14 = conditions: Melanoma M14; single dose 10^−5 M
Summary of the method: (§1)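 Growth inhibition here reflects a 2-day treatment at a single 10 µM dose, measured by sulforhodamine B staining of fixed cells and normalised to drug-free and time-zero controls.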

MDA-MB-435 = conditions: Melanoma MDA-MB-435; single dose 10^−5 M
Summary of the method: as §1

NCI-H226 = conditions: Non-small cell lung cancer NCI-H226; single dose 10^−5 M
Summary of the method: as §1

OVCAR-5 = conditions: Ovarian cancer OVCAR-5; single dose 10^−5 M
Summary of the method: as §1

SF-295 = conditions: CNS cancer SF-295; single dose 10^−5 M
Summary of the method: as §1

SW-620 = conditions: Colon cancer SW-620; single dose 10^−5 M
Summary of the method: as §1

MDA-MB-231/ATCC = conditions: Breast cancer MDA-MB-231/ATCC; single dose 10^−5 M
Summary of the method: as §1

SK-MEL-2 = conditions: Melanoma SK-MEL-2; single dose 10^−5 M
Summary of the method: as §1

SF-539 = conditions: CNS cancer SF-539; single dose 10^−5 M
Summary of the method: as §1

K-562 = conditions: Leukaemia K-562; single dose 10^−5 M
Summary of the method: as §1

SNB-75 = conditions: CNS cancer SNB-75; single dose 10^−5 M
Summary of the method: as §1

UO-31 = conditions: Renal cancer UO-31; single dose 10^−5 M
Summary of the method: as §1

RPMI-8226 = conditions: Leukaemia RPMI-8226; single dose 10^−5 M
Summary of the method: as §1

HCT-116 = conditions: Colon cancer HCT-116; single dose 10^−5 M
Summary of the method: as §1

RXF 393 = conditions: Renal cancer RXF 393; single dose 10^−5 M
Summary of the method: as §1

MOLT-4 = conditions: Leukaemia MOLT-4; single dose 10^−5 M
Summary of the method: as §1

SNB-19 = conditions: CNS cancer SNB-19; single dose 10^−5 M
Summary of the method: as §1

LOX IMVI = conditions: Melanoma LOX IMVI; single dose 10^−5 M
Summary of the method: as §1

HCT-15 = conditions: Colon cancer HCT-15; single dose 10^−5 M
Summary of the method: as §1

SK-MEL-28 = conditions: Melanoma SK-MEL-28; single dose 10^−5 M
Summary of the method: as §1

UACC-62 = conditions: Melanoma UACC-62; single dose 10^−5 M
Summary of the method: as §1

COLO 205 = conditions: Colon cancer COLO 205; single dose 10^−5 M
Summary of the method: as §1

DU-145 = conditions: Prostate cancer DU-145; single dose 10^−5 M
Summary of the method: as §1

NCI/ADR-RES = conditions: Ovarian cancer NCI/ADR-RES; single dose 10^−5 M
Summary of the method: as §1

| Structure (SMILES) | GI% at 10^−5 M (M14) | GI% at 10^−5 M (MDA-MB-435) | GI% at 10^−5 M (NCI-H226) | GI% at 10^−5 M (OVCAR-5) | GI% at 10^−5 M (SF-295) | GI% at 10^−5 M (SW-620) | GI% at 10^−5 M (MDA-MB-231/ATCC) [%] | GI% at 10^−5 M (SK-MEL-2) | GI% at 10^−5 M (SF-539) | GI% at 10^−5 M (K-562) | GI% at 10^−5 M (SNB-75) [%] | GI% at 10^−5 M (UO-31) [%] | GI% at 10^−5 M (RPMI-8226) | GI% at 10^−5 M (HCT-116) | GI% at 10^−5 M (RXF 393) | GI% at 10^−5 M (MOLT-4) | GI% at 10^−5 M (SNB-19) | GI% at 10^−5 M (LOX IMVI) | GI% at 10^−5 M (HCT-15) | GI% at 10^−5 M (SK-MEL-28) | also measured |
| --- | --- | --- | --- | --- | --- | --- | --- | --- | --- | --- | --- | --- | --- | --- | --- | --- | --- | --- | --- | --- | --- |
| COc1ccc(NC(=O)CNn2c(COc3ccccc3)nc3ccccc3c2=O)cc1 [Compound 4b, N-(4-methoxyphenyl)-2-((4-oxo-2-(phenoxymethyl)quinazolin-3(4H)-yl)amino)acetamide] | – (– means GI < 10%) | – (– means GI < 10%) | – (– means GI < 10%) | – (– means GI < 10%) | – (– means GI < 10%) | – (– means GI < 10%) | 11.38 | – (– means GI < 10%) | – (– means GI < 10%) | – (– means GI < 10%) | 21.9 | 15.77 | – (– means GI < 10%) | – (– means GI < 10%) | – (– means GI < 10%) | – (– means GI < 10%) | – (– means GI < 10%) | – (– means GI < 10%) | – (– means GI < 10%) | – (– means GI < 10%) | GI% at 10^−5 M (UACC-62): – (– means GI < 10%); GI% at 10^−5 M (COLO 205): – (– means GI < 10%); GI% at 10^−5 M (DU-145): – (– means GI < 10%); GI% at 10^−5 M (NCI/ADR-RES): – (– means GI < 10%) |
| O=c1c2ccccc2nc(COc2ccccc2)n1NS(=O)(=O)c1ccccc1 [Compound 5a, N-(4-oxo-2-(phenoxymethyl)quinazolin-3(4H)-yl)benzenesulfonamide] | – (– means GI < 10%) | – (– means GI < 10%) | – (– means GI < 10%) | – (– means GI < 10%) | – (– means GI < 10%) | – (– means GI < 10%) | 13.77 | – (– means GI < 10%) | – (– means GI < 10%) | – (– means GI < 10%) | 40.06 | 18.13 | – (– means GI < 10%) | – (– means GI < 10%) | – (– means GI < 10%) | – (– means GI < 10%) | – (– means GI < 10%) | – (– means GI < 10%) | – (– means GI < 10%) | – (– means GI < 10%) | GI% at 10^−5 M (UACC-62): – (– means GI < 10%); GI% at 10^−5 M (COLO 205): – (– means GI < 10%); GI% at 10^−5 M (DU-145): – (– means GI < 10%); GI% at 10^−5 M (NCI/ADR-RES): – (– means GI < 10%) |
| Cc1ccc(S(=O)(=O)Nn2c(COc3ccccc3)nc3ccccc3c2=O)cc1 [Compound 5b, 4-methyl-N-(4-oxo-2-(phenoxymethyl)quinazolin-3(4H)-yl)benzenesulfonamide] | – (– means GI < 10%) | – (– means GI < 10%) | – (– means GI < 10%) | – (– means GI < 10%) | – (– means GI < 10%) | – (– means GI < 10%) | 10.94 | – (– means GI < 10%) | – (– means GI < 10%) | – (– means GI < 10%) | 33.03 | 10.74 | – (– means GI < 10%) | – (– means GI < 10%) | 10.27% | – (– means GI < 10%) | – (– means GI < 10%) | – (– means GI < 10%) | – (– means GI < 10%) | – (– means GI < 10%) | GI% at 10^−5 M (UACC-62): – (– means GI < 10%); GI% at 10^−5 M (COLO 205): – (– means GI < 10%); GI% at 10^−5 M (DU-145): 15.73%; GI% at 10^−5 M (NCI/ADR-RES): – (– means GI < 10%) |
| O=c1c2ccccc2nc(COc2ccccc2)n1NS(=O)(=O)c1ccc(Cl)cc1 [Compound 5c, 4-chloro-N-(4-oxo-2-(phenoxymethyl)quinazolin-3(4H)-yl)benzenesulfonamide] | 25.84% | 94.53% | 17.00% | – (– means GI < 10%) | – (– means GI < 10%) | 30.94% | 32.6 | 25.29% | 13.14% | 52.75% | 63.09 | 37.25 | – (– means GI < 10%) | 16.40% | – (– means GI < 10%) | 30.51% | 20.21% | 16.40% | 45.60% | 12.91% | GI% at 10^−5 M (UACC-62): 23.06%; GI% at 10^−5 M (COLO 205): – (– means GI < 10%); GI% at 10^−5 M (DU-145): – (– means GI < 10%); GI% at 10^−5 M (NCI/ADR-RES): 26.99% |
| COc1cc(C=Nn2c(COc3ccccc3)nc3ccccc3c2=O)ccc1O [Compound 6a, 3-((4-hydroxy-3-methoxybenzylidene)amino)-2-(phenoxymethyl)quinazolin-4(3H)-one] | – (– means GI < 10%) | – (– means GI < 10%) | – (– means GI < 10%) | – (– means GI < 10%) | – (– means GI < 10%) | – (– means GI < 10%) | 10.92 | – (– means GI < 10%) | – (– means GI < 10%) | – (– means GI < 10%) | 13.12 | 15.75 | – (– means GI < 10%) | – (– means GI < 10%) | – (– means GI < 10%) | – (– means GI < 10%) | – (– means GI < 10%) | – (– means GI < 10%) | – (– means GI < 10%) | – (– means GI < 10%) | GI% at 10^−5 M (UACC-62): – (– means GI < 10%); GI% at 10^−5 M (COLO 205): – (– means GI < 10%); GI% at 10^−5 M (DU-145): – (– means GI < 10%); GI% at 10^−5 M (NCI/ADR-RES): – (– means GI < 10%) |
